Experiments:
Format in all cases: cell-based
[1] = system: Acinetobacter baumannii 0604029; experiment: Peptidase detection on Columbia medium (Example 4); settings: 75 mg/l, 48 h 37° C.; for Growth: control C: ++
Excerpt: (§1) After homogenization, the media were distributed into 120-mm-squared dishes. A medium serving as a growth control (Columbia) and denoted C was also poured.

Candida glabrata 0408083 = experiment: Peptidase detection on Columbia medium (Example 4); settings: 75 mg/l, 48 h 37° C.; for Growth: control C: +
Excerpt: as §1

[2] = system: Staphylococcus epidermidis 0203050; experiment: Peptidase detection on Columbia medium (Example 4); settings: 75 mg/l, 48 h 37° C.; for Growth: control C: ++
Excerpt: as §1

Candida albicans 0801025 = experiment: Peptidase detection on Columbia medium (Example 4); settings: 75 mg/l, 48 h 37° C.; for Growth: control C: ++
Excerpt: as §1

[3] = system: Klebsiella pneumoniae 0008009; experiment: Peptidase detection on Columbia medium (Example 4); settings: 75 mg/l, 48 h 37° C.; for Growth: control C: ++
Excerpt: as §1

[4] = system: Providencia rettgeri 0706064; experiment: Peptidase detection on Columbia medium (Example 4); settings: 75 mg/l, 48 h 37° C.; for Growth: control C: ++
Excerpt: as §1

[5] = system: Serratia marcescens 7303004; experiment: Peptidase detection on Columbia medium (Example 4); settings: 75 mg/l, 48 h 37° C.; for Growth: control C: ++
Excerpt: as §1

[6] = system: Pseudomonas aeruginosa 0001001; experiment: Peptidase detection on Columbia medium (Example 4); settings: 75 mg/l, 48 h 37° C.; for Growth: control C: ++
Excerpt: as §1

[7] = system: Citrobacter freundii 0006197; experiment: Peptidase detection on Columbia medium (Example 4); settings: 75 mg/l, 48 h 37° C.; for Growth: control C: ++
Excerpt: as §1

[8] = system: Burkholderia cepacia 7507032; experiment: Peptidase detection on Columbia medium (Example 4); settings: 75 mg/l, 48 h 37° C.; for Growth: control C: ++
Excerpt: as §1

[9] = system: Listeria monocytogenes 8812049; experiment: Peptidase detection on Columbia medium (Example 4); settings: 75 mg/l, 48 h 37° C.; for Growth: control C: ++
Excerpt: as §1

[10] = system: Enterococcus faecalis 0008192; experiment: Peptidase detection on Columbia medium (Example 4); settings: 75 mg/l, 48 h 37° C.; for Growth: control C: ++
Excerpt: as §1

[11] = system: Yersinia enterocolitica 7605019; experiment: Peptidase detection on Columbia medium (Example 4); settings: 75 mg/l, 48 h 37° C.; for Growth: control C: ++
Excerpt: as §1

[12] = system: Enterobacter cloacae 0604040; experiment: Peptidase detection on Columbia medium (Example 4); settings: 75 mg/l, 48 h 37° C.; for Growth: control C: ++
Excerpt: as §1

[13] = system: Salmonella ser typhimurium 0801029; experiment: Peptidase detection on Columbia medium (Example 4); settings: 75 mg/l, 48 h 37° C.; for Growth: control C: ++
Excerpt: as §1

[14] = system: Streptococcus pyogenes 9806380; experiment: Peptidase detection on Columbia medium (Example 4); settings: 75 mg/l, 48 h 37° C.; for Growth: control C: ++
Excerpt: as §1

Escherichia coli 0002005 = experiment: Peptidase detection on Columbia medium (Example 4); settings: 75 mg/l, 48 h 37° C.; for Growth: control C: ++
Excerpt: as §1

[15] = system: Bacillus subtilis 0204038; experiment: Peptidase detection on Columbia medium (Example 4); settings: 75 mg/l, 48 h 37° C.; for Growth: control C: ++
Excerpt: as §1

[16] = system: Morganella morganii 9207053; experiment: Peptidase detection on Columbia medium (Example 4); settings: 75 mg/l, 48 h 37° C.; for Growth: control C: ++
Excerpt: as §1

MRSA 0303033 = experiment: Peptidase detection on Columbia medium (Example 4); settings: 75 mg/l, 48 h 37° C.; for Growth: control C: ++
Excerpt: as §1

[17] = system: Staphylococcus aureus 7811049; experiment: Peptidase detection on Columbia medium (Example 4); settings: 75 mg/l, 48 h 37° C.; for Growth: control C: ++
Excerpt: as §1

[18] = system: Enterococcus faecium 0610021; experiment: Peptidase detection on Columbia medium (Example 4); settings: 75 mg/l, 48 h 37° C.; for Growth: control C: ++
Excerpt: as §1

[19] = system: Escherichia coli NCTC 10 418; experiment: Peptidase detection on Columbia medium (Example 2); design: key to Growth: NG: No growth; 0.5: weak growth; 1: moderate growth; 2: good growth; settings: 40 mg in 400 ml Columbia; 24 h 37° C.
Experimental: (§2) The 6 media were distributed into Petri dishes 90 mm in diameter, in a proportion of 20 ml per dish.
(§3) Seventeen strains of microorganisms stemming from collections and belonging to various species of bacteria and yeasts are inoculated in spots of approximately 10 000 colony-forming units.
(§4) The media are incubated for 24 hours at 37° C., and then the colonies formed are examined visually, with or without the addition of acid and under a UV lamp at 365 nm.

[20] = system: Staphylococcus aureus NCTC 11 939; experiment: Peptidase detection on Columbia medium (Example 2); design: key to Growth: NG: No growth; 0.5: weak growth; 1: moderate growth; 2: good growth; key to Fluo. / Color / Color post-acid.: —: no color; settings: 40 mg in 400 ml Columbia; 24 h 37° C.
Experimental: as §2, §3, §4

[21] = system: Yersinia enterocolitica NCTC 11 176; experiment: Peptidase detection on Columbia medium (Example 2); design: key to Growth: NG: No growth; 0.5: weak growth; 1: moderate growth; 2: good growth; settings: 40 mg in 400 ml Columbia; 24 h 37° C.
Experimental: as §2, §3, §4

[22] = system: Providencia rettgeri NCTC 7 475; experiment: Peptidase detection on Columbia medium (Example 2); design: key to Growth: NG: No growth; 0.5: weak growth; 1: moderate growth; 2: good growth; settings: 40 mg in 400 ml Columbia; 24 h 37° C.
Experimental: as §2, §3, §4

[23] = system: Candida albicans ATCC 90 028; experiment: Peptidase detection on Columbia medium (Example 2); design: key to Growth: NG: No growth; 0.5: weak growth; 1: moderate growth; 2: good growth; key to Fluo. / Color / Color post-acid.: —: no color; settings: 40 mg in 400 ml Columbia; 24 h 37° C.
Experimental: as §2, §3, §4

[24] = system: Salmonella typhimurium NCTC 74; experiment: Peptidase detection on Columbia medium (Example 2); design: key to Growth: NG: No growth; 0.5: weak growth; 1: moderate growth; 2: good growth; settings: 40 mg in 400 ml Columbia; 24 h 37° C.
Experimental: as §2, §3, §4

[25] = system: Enterobacter cloacae NCTC 11 936; experiment: Peptidase detection on Columbia medium (Example 2); design: key to Growth: NG: No growth; 0.5: weak growth; 1: moderate growth; 2: good growth; settings: 40 mg in 400 ml Columbia; 24 h 37° C.

`C[C@H](N)C(=O)Nc1ccc(C=Cc2cc[n+](C)c3ccccc23)cc1.Cl.[Cl-]` [L-alanyl-4-(4′-amidostyryl)-N-methylquinolinium (dichloride)] was tested, and the Color [1] was “orange”, the Coloration strength [1] was “++” and the Growth [1] was “++”. For the same molecule, the Coloration strength (Candida glabrata 0408083) was “−”, the Growth (Candida glabrata 0408083) was “+” and the Color [2] was “orange”. For the same molecule, the Coloration strength [2] was “++”, the Growth [2] was “++” and the Coloration strength (Candida albicans 0801025) was “−”. For the same molecule, the Growth (Candida albicans 0801025) was “++”, the Color [3] was “orange” and the Coloration strength [3] was “++”. For the same molecule, the Growth [3] was “++”, the Color [4] was “orange” and the Coloration strength [4] was “+”. For the same molecule, the Growth [4] was “++”, the Color [5] was “orange” and the Coloration strength [5] was “++”. For the same molecule, the Growth [5] was “++”, the Color [6] was “orange” and the Coloration strength [6] was “++”. The Growth [6] was “++”, the Color [7] was “orange” and the Coloration strength [7] was “+”. For the same molecule, the Growth [7] was “++”, the Color [8] was “orange” and the Coloration strength [8] was “+”. The Growth [8] was “++”, the Color [9] was “orange” and the Coloration strength [9] was “++”. The Growth [9] was “++”, the Color [10] was “orange” and the Coloration strength [10] was “+”. For the same molecule, the Growth [10] was “++”, the Color [11] was “orange” and the Coloration strength [11] was “++”. The Growth [11] was “++”, the Color [12] was “orange” and the Coloration strength [12] was “++”. The Growth [12] was “++”, the Color [13] was “orange” and the Coloration strength [13] was “+”. For the same molecule, the Growth [13] was “++”, the Color [14] was “orange” and the Coloration strength [14] was “+”. The Growth [14] was “++”, the Color (Escherichia coli 0002005) was “orange” and the Coloration strength (Escherichia coli 0002005) was “++”. For the same molecule, the Growth (Escherichia coli 0002005) was “++”, the Color [15] was “−” and the Coloration strength [15] was “−”. The Growth [15] was “++”, the Color [16] was “orange” and the Coloration strength [16] was “++”. For the same molecule, the Growth [16] was “++”, the Color (MRSA 0303033) was “orange” and the Coloration strength (MRSA 0303033) was “+”. The Growth (MRSA 0303033) was “++”, the Coloration strength [17] was “+” and the Growth [17] was “++”. For the same molecule, the Color [18] was “−”, the Coloration strength [18] was “−” and the Growth [18] was “++”.
In the case of `C[C@H](N)C(=O)N[C@@H](C)C(=O)N[C@@H](C)C(=O)Nc1ccc(C=Cc2cc[n+](C)c3ccccc23)cc1.Cl.[Cl-]` [Tri-Ala-ASQM^+, L-alanyl-L-alanyl-L-alanyl-4-(4′-amidostyryl)-N-methylquinolinium (dichloride)], the Color [19] is reported as “Orange”, the Growth [19] is reported as 2 and the Color [1] is reported as “orange”. For the same molecule, the Coloration strength [1] was “++”, the Growth [1] was “++” and the Growth (Candida glabrata 0408083) was “−”. The Color [2] was “orange”, the Coloration strength [2] was “++” and the Growth [2] was “++”. For the same molecule, the Growth (Candida albicans 0801025) was “+”, the Color [3] was “orange” and the Coloration strength [3] was “++”. For the same molecule, the Growth [3] was “++”, the Color [4] was “orange” and the Coloration strength [4] was “+”. For the same molecule, the Growth [4] was “++”, the Color [5] was “orange” and the Coloration strength [5] was “++”. For the same molecule, the Growth [5] was “++”, the Color [6] was “orange” and the Coloration strength [6] was “++”. For the same molecule, the Growth [6] was “++”, the Color [7] was “orange” and the Coloration strength [7] was “+”. For the same molecule, the Growth [7] was “++”, the Color [8] was “orange” and the Coloration strength [8] was “+”. The Growth [8] was “++”, the Color [9] was “orange” and the Coloration strength [9] was “++”. The Growth [9] was “++”, the Color [10] was “orange” and the Coloration strength [10] was “+”. The Growth [10] was “++”, the Color [11] was “orange” and the Coloration strength [11] was “++”. The Growth [11] was “++”, the Color [12] was “orange” and the Coloration strength [12] was “++”. The Growth [12] was “++”, the Color [13] was “orange” and the Coloration strength [13] was “+”. For the same molecule, the Growth [13] was “++”, the Color [14] was “orange” and the Coloration strength [14] was “+”. For the same molecule, the Growth [14] was “++”, the Color (Escherichia coli 0002005) was “orange” and the Coloration strength (Escherichia coli 0002005) was “++”. The Growth (Escherichia coli 0002005) was “++”, the Coloration strength [15] was “−” and the Growth [15] was “++”. For the same molecule, the Color [16] was “orange”, the Coloration strength [16] was “++” and the Growth [16] was “++”. For the same molecule, the Color (MRSA 0303033) was “orange”, the Coloration strength (MRSA 0303033) was “+” and the Growth (MRSA 0303033) was “++”. For the same molecule, the Coloration strength [17] was “+”, the Growth [17] was “++” and the Coloration strength [18] was “−”. For the same molecule, the Growth [18] was “++”, the Color [20] was “—” and the Growth [20] was 2. The Growth [21] was 2, the Growth [22] was 2 and the Color [23] was “—”. The Growth [23] was 2, the Color [24] was “Orange” and the Growth [24] was 2. The Color [25] was “Orange” and the Growth [25] was 2.

Source: patent publication US8592174B2, “Peptidase substrates” (bioMérieux, S.A., priority 2009, dated 2013)
